The values that follow come from patent publication US6605598B1, “Chemically synthesized sugar esters for the control of soft-bodied arthropods” (The United States of America as represented by the …, priority 1994, dated 2003).

For series [1], the system named is tobacco aphid, Myrzus Nicotiana Blackman. Description: Spray bioassay against tobacco aphids. The format is in vivo. Particulars: individual SE groups; 1 mg SE/ml aqueous spray solution; after 24 hours; average of number of tests. Here is the method: (§1) Bioassays of the total SE reaction products as well as of the individual groups of SE were conducted using the tobacco aphid, Myrzus Nicotiana Blackman, the greenhouse whitefly, Trialeurodes vaporariorum Westwood, and the sweetpotato whitefly, Bemisia tabaci Gennadius. Aqueous dispersions of sugar ester fractions, obtained from the column chromatographic step or the total reaction SE products were tested generally at a concentration of 1 mg/ml of water. To prepare the sprayable aqueous mixtures, a small amount of methanol (approximately about 20 μl per 10 mg of dried test compound) is added to the dried test compound. This is agitated gently. Then acetone is added to the methanol mixture to yield a concentration of approximately about 0.05 g/ml. This is shaken gently. To obtain a final, sprayable concentration of approximately about 1 mg sucrose ester/ml, about 10 ml of water are added to the mixture. This is then placed into an ultrasonic bath for 20 minutes. The resulting solution is ready to spray. Green-house reared apterous (wingless) aphids, that colonized a green tobacco plant, were removed with a leaf, sprayed, and kept in a closed petri dish. Percent mortality was determined after 24 hours. In a similar manner, bioassays against the green house whitefly or sweetpotato whitefly are conducted by spraying sucrose ester dispersions at 1 mg/ml of water onto whiteflies, trapped on a sticky surface, and determining percent mortality after 2-24 hours. Tables II and III below show the percent mortality of aphids treated by the individual sucrose ester groups and the total SE reaction products.

Series [2] deals with greenhouse whitefly, Trialeurodes vaporariorum Westwood. Description: Spray bioassay against the greenhouse whitefly. It counts as in vivo. Conditions: group 2 SE, 1.0 mg/ml spray solution, after 24 hours, average of number of tests. As for the experimental part: as §1

One may read the mortality as the share of the test organisms that died. A high value points to a strong lethal effect. Regarding `CCCCCCCC(=O)OCC1OC(OC2(CO)OC(COC(=O)CCCCCCC)C(O)C2O)C(O)C(O)C1O` (single isomer, unassigned) [dioctanoyl sucrose], the “% Mortality” value in series [1] worked out at 88%. This compound gave a mortality at 1000 µg/mL in series [2] (Trialeurodes vaporariorum) of 100%.

Consider `CCCCCCCC(=O)OCC1OC(OC2(COC(=O)CCCCCCC)OC(COC(=O)CCCCCCC)C(O)C2O)C(O)C(O)C1O` (single isomer, unassigned) [trioctanoyl sucrose], for which the “% Mortality” value in series [1] was 27%. In the case of didecanoyl sucrose, the entries for the “% Mortality” value in series [1] and in series [2] were 43% and 100%, respectively.

With didodecanoyl sucrose, the figures for the “% Mortality” value in series [1] and in series [2] were 23% and 100%, respectively.

Turning to diheptanoyl sucrose, the “% Mortality” value in series [1] is listed as 88%; in series [2], 100%. For dihexanoyl sucrose, the “% Mortality” value in series [2] came to 77%.

Regarding dinonanoyl sucrose, the “% Mortality” value in series [1] came out at 64%; in series [2] it was 87%. Consider monodecanoyl sucrose, for which the “% Mortality” value in series [1] came out at 47%. On to monododecanoyl sucrose, for which, in series [1], the “% Mortality” value is 47%. Still for that read-out and setting: as for monoheptanoyl sucrose, the figure is 17%.

With monononanoyl sucrose, in series [1], the “% Mortality” value is listed as 16%. On to monooctanoyl sucrose, for which the “% Mortality” value in series [1] is recorded as 11%.

Regarding tridecanoyl sucrose, the “% Mortality” value in series [1] is 15%. For the compound tridnanoyl sucrose, the “% Mortality” value in series [1] is 13%. Same read-out and setting: for tridodecanoyl sucrose the value was 15%; for triheptanoyl sucrose, 16%.
